The target of one assay is rat TRPM8 (Rattus norvegicus, UniProt Q8R455). The assay is described as follows: Fura-2 ratiometric calcium imaging, agonist dose-response. In kind it is cell-based.
In the next assay the target is mouse TRPM8 (mTRPM8) (Mus musculus, UniProt Q8R4D5). The assay is described as follows: whole-cell patch clamp, shift of voltage for half-maximal activation. It counts as cell-based. The settings on record: agonist; 30 µM rapamycin, calcium-free, pH 7.4, 33 °C. For orientation: In patch-clamp work, channel activity is measured electrically.
Chain of mouse TRPM8 (mTRPM8) (Q8R4D5 whole entry): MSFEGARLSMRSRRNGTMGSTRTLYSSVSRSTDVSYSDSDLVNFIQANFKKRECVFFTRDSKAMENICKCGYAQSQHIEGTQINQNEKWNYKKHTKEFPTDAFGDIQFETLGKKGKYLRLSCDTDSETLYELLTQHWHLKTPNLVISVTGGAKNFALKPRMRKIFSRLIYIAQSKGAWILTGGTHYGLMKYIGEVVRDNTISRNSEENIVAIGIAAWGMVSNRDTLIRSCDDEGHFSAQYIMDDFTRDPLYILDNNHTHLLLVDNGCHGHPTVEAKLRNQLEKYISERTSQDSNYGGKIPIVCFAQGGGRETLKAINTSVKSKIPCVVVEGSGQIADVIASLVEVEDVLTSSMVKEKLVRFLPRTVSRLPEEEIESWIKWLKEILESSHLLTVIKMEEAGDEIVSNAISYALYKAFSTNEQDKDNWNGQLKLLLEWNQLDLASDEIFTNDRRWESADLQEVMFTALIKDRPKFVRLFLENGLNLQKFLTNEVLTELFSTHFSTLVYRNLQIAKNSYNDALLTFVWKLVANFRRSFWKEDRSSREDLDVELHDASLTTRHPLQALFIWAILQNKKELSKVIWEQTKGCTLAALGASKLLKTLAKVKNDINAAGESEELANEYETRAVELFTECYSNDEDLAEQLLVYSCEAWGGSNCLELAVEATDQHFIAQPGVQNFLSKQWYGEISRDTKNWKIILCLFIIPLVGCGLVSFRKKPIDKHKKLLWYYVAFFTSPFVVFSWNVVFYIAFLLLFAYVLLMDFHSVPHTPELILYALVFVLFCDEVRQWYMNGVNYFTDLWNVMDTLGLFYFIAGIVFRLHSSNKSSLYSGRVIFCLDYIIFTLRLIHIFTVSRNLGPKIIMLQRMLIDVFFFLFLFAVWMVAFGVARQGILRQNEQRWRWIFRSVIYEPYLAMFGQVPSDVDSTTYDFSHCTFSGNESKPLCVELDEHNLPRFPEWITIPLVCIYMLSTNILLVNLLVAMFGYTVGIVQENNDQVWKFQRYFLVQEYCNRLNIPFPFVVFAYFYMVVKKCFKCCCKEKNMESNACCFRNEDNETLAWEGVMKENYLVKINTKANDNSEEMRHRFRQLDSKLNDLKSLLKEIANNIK

As a reminder, the EC50 is the concentration that produces a half-maximal response.

Molecules are shown by their SMILES.

Chain of rat TRPM8 (Q8R455 whole entry): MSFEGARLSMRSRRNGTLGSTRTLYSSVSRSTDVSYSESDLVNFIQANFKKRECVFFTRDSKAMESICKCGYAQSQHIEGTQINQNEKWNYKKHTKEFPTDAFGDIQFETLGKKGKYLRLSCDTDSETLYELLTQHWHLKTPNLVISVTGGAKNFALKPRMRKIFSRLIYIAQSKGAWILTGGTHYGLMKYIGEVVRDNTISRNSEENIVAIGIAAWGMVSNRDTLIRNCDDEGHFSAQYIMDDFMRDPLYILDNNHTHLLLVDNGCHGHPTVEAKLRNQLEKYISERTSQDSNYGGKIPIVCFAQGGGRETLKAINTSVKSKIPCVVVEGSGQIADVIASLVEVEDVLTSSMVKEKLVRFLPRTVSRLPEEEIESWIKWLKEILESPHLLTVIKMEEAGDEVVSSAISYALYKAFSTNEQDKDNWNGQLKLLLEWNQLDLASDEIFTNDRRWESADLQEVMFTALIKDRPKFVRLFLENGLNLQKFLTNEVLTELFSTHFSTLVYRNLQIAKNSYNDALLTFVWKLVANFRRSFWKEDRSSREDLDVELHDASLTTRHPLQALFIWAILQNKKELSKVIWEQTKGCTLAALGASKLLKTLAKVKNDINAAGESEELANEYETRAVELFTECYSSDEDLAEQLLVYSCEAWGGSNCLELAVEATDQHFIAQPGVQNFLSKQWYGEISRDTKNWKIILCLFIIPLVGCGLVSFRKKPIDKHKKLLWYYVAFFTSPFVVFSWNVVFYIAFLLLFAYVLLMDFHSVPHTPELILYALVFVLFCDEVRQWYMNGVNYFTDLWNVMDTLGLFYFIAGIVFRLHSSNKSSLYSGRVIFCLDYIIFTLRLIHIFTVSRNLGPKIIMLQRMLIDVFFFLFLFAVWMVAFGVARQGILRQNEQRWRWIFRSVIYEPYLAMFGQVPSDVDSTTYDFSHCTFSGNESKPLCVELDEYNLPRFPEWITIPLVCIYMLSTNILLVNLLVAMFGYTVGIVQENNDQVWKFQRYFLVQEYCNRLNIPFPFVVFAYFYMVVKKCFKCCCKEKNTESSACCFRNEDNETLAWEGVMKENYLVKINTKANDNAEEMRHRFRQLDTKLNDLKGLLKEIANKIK

In the case of `CO[C@H]1C[C@@H]2CC[C@@H](C)[C@@](O)(O2)C(=O)C(=O)N2CCCC[C@H]2C(=O)O[C@H]([C@H](C)C[C@@H]2CC[C@@H](O)[C@H](OC)C2)CC(=O)[C@H](C)/C=C(\C)[C@@H](O)[C@@H](OC)C(=O)[C@H](C)C[C@H](C)/C=C/C=C/C=C/1C` [rapamycin], the half-maximal effective concentration (EC50) at rat TRPM8 worked out at 6.5 ± 1.5 µM. The ΔV1/2 at mouse TRPM8 (mTRPM8) is given as −102.1 ± 5.2 mV.
